Results taken from ChEMBL document CHEMBL2028040, “Malaria Box”.

Experiments:
Plasmodium falciparum [1] = assay: MMV: Inhibition of Plasmodium falciparum 3D7 (EC50).; type: functional, organism-based
Trypanosoma cruzi = assay: MMV: Inhibition of Trypanosoma cruzi (Tulahuen C4 LacZ) (Chagas in vitro).; type: functional, organism-based
[2] = system: Trypanosoma brucei brucei; assay: MMV: Inhibition of Trypanosoma brucei brucei (Squib 427) (HAT in vitro).; type: functional, organism-based
[3] = system: Trypanosoma brucei rhodesiense; assay: MMV: Inhibition of Trypanosoma brucei rhodesiense (STIB 900) (HAT in vitro).; type: functional, organism-based
Leishmania infantum = assay: MMV: Inhibition of Leishmania infantum (MHOM/MA/BE/67) in vitro.; type: functional, organism-based
[4] = MMV: Cytotoxicity against human fibroblasts (MRC-5) cells.; conditions: MRC-5 cells (human fibroblasts)
Plasmodium falciparum [5] = assay: MMV: Inhibition of Plasmodium falciparum 3D7 at 5uM compound concentration.; type: functional

SMILES | EC50 (Plasmodium falciparum [1]) [nM] | IC50 (Trypanosoma cruzi) [µM] | IC50 [2] [µM] | IC50 [3] [µM] | IC50 (Leishmania infantum) [µM] | IC50 [4] [µM] | inhibition at 5 µM (Plasmodium falciparum [5]) [%]
COc1ccc(C2c3ccc4ccccc4c3Oc3ncn(CCCN(C)C)c(=N)c32)cc1 (centres undefined) | 1230 | 1.01 | 0.259 | 0.223 | 1.01 | 3.49 | –
CCN1CCCC1CNc1[nH]cnc2c3cc(Cl)ccc3nc1-2 (centres undefined) | 218 | > 32 | > 32 | > 32 | 16.2 | > 32 | –
COc1ccc(-c2c(C)nn3c(N)c(C#N)cnc23)cc1OC | 477 | > 32 | > 32 | > 32 | > 32 | 27.6 | –
COc1ccc2c(c1)C1(Nc3ccccc3-c3nc4ccccc4n31)C(=O)N2 (centres undefined) | 928 | > 32 | > 32 | > 32 | > 32 | > 32 | –
COc1cccc(Cn2c(Oc3ccccc3)nc3c2c(=O)n(C)c(=O)n3C)c1 | 1390 | > 32 | > 32 | > 32 | > 32 | > 32 | –
N=c1n(CCN2CCCCC2)c2ccccc2n1CC(=O)c1ccc(Cl)c(Cl)c1 | 1240 | 4.48 | 4 | 1.1 | 4.06 | 10.6 | –
C[n+]1c2ccccc2nc2ccc(NCCO)cc21 | 296 | 16 | 14 | 16 | > 32 | > 32 | –
OC(CNCC1CCCO1)Cn1c2ccc(Cl)cc2c2cc(Cl)ccc21 (centres undefined) | 1060 | 19.2 | 10 | 6.12 | 16.1 | > 32 | –
Cc1sc(NC(=O)c2ccco2)c(C(c2cccnc2)N2CCC(Cc3ccccc3)CC2)c1C (centres undefined) | 1020 | 1.36 | 3.94 | 3.97 | 16.2 | > 32 | –
CCOC(=O)c1c(C)n(-c2ccccc2)c2ccc(OC(=O)c3cc(OC)c(OC)c(OC)c3)cc12 | 615 | 13.3 | 16.2 | 10.8 | > 32 | 26.4 | –
COc1cc(C(=O)Nc2nc3c(cc4c5c(cccc53)CC4)s2)cc(OC)c1OC | 898 | > 32 | > 32 | > 32 | 16.2 | > 32 | –
Cc1cc(N2CCCC2)nc(Nc2ccc(NC(=O)CCc3ccccc3)cc2)n1 | 1070 | 1.01 | 4.3 | 0.871 | 1.19 | 5.38 | –
O=C(NCC(c1ccsc1)N1CCCCCC1)c1ccc(C(F)(F)F)cc1 (centres undefined) | 433 | 22.5 | 16.1 | 1.7 | 16.1 | > 32 | –
COc1ccc(-c2cc3c(SCC(=O)Nc4cc(C(F)(F)F)ccc4Cl)nccn3n2)cc1 | 89.9 | > 32 | > 32 | > 32 | 16.2 | > 32 | –
Cc1ccc(-c2cc3c(SCC(=O)Nc4cc(C(F)(F)F)ccc4Cl)nccn3n2)cc1 | 92.8 | > 32 | > 32 | > 32 | > 32 | > 32 | –
Cc1cc(NC(=O)c2cccc(C(F)(F)F)c2)n(-c2nc(-c3ccc4c(c3)OCO4)cs2)n1 | 959 | > 32 | > 32 | > 32 | 16.2 | > 32 | –
CCN(CC)CCNc1ncnc2c1[nH]c1ccc(Cl)cc12 | 406 | 10.7 | 4.09 | 3.73 | 16.2 | > 32 | –

SMILES | EC50 (Plasmodium falciparum [1]) [nM] | IC50 (Trypanosoma cruzi) [µM] | IC50 [2] [µM] | IC50 [3] [µM] | IC50 (Leishmania infantum) [µM] | IC50 [4] [µM] | inhibition at 5 µM (Plasmodium falciparum [5]) [%]
CN1CCN(c2ncnc3c2[nH]c2ccc(Cl)cc23)CC1 | 1190 | 30.8 | 14.6 | 11 | 21.5 | > 32 | –
CC1(c2ccccc2)Nc2ccccc2-c2nc3ccccc3n21 (centres undefined) | 1730 | 19.1 | 17.1 | 10.3 | > 32 | > 32 | –
COc1ccc(CCN2C(=O)c3[nH]nc(-c4cc(Cl)c(C)cc4O)c3C2c2ccccc2F)cc1 (centres undefined) | 916 | 12.9 | 4 | 3.56 | 12 | > 32 | –
COc1cccc(C2(C)Nc3ccccc3-c3nc4ccccc4n32)c1 (centres undefined) | 1150 | 13.4 | 15 | 14.5 | > 32 | 26.4 | –
N#Cc1nc(Cc2cccc3ccccc23)oc1N1CCN(C(c2ccccc2)c2ccccc2)CC1 | 1160 | > 32 | > 32 | 15.7 | 25.4 | > 32 | –
CC(C)CNC(=O)c1c(N)n(CCc2ccccc2F)c2nc3ccccc3nc12 | 832 | > 32 | > 32 | > 32 | > 32 | > 32 | –
O=C(NNc1cc(N2CCCC2)nc(N2CCCC2)n1)c1ccccc1 | 1330 | 13.7 | > 32 | 16.5 | 25.4 | > 32 | –
CC(C)(C)CC(C)(C)NCC(O)COc1ccc(Cl)cc1Cl (centres undefined) | 1160 | 12.2 | 4 | 4.06 | 6.35 | 16.1 | –
Cc1cccc(-n2ncc3c(O)nc(-n4nc(C)cc4NC(=O)c4cc5ccccc5o4)nc32)c1 | 929 | 0.234 | 0.481 | 0.305 | 4.32 | 0.653 | –
COC(=O)c1ccc(Cl)c2c1C1C=CCC1C(c1cccc3ccccc13)N2 (centres undefined) | 939 | 13.5 | 16 | 11.9 | 17.3 | > 32 | –
COc1ccc(C2c3ccc4ccccc4c3Oc3ncn(CCCn4ccnc4)c(=N)c32)cc1OC (centres undefined) | 1790 | 4.2 | 15.5 | 1.8 | 5.38 | 10.1 | –
CN(N=O)C1=C(NC2CCCCC2)C(=O)c2ccccc2C1=O | 1190 | 12.8 | 16.5 | 4.61 | > 32 | > 32 | –
OC1=C2C(=Nc3ccccc3SC2c2ccccc2)c2ccccc21 (centres undefined) | 890 | 13.9 | 4.15 | 3.56 | 16.2 | 15.7 | –
COc1ccc(CCn2c(=N)c(C(=O)NCc3cccnc3)cc3c(=O)n4cccc(C)c4nc32)cc1 | 373 | 13.2 | 4 | 3.6 | 12.7 | > 32 | –
CCOc1ccc(Nc2c3ccccc3nc3ccccc23)cc1 | 1060 | 1.25 | 3.45 | 0.976 | 1.59 | 8.44 | 97
Nc1ccn([C@@H]2O[C@H](CO)[C@@H](O)[C@H]2O)c(=O)n1 [CYTIDINE] | 385 | > 32 | > 32 | > 32 | > 32 | > 32 | –
